One substance from publication PMC10102842 (Clinical cancer research : an official journal of the …, 2023) can be followed below.

In general, IC50 refers to the concentration that gives 50% inhibition.

The experiment has as its target DNA polymerase theta (Polθ) (Homo sapiens, UniProt O75417). The experiment is described as follows: Nano-luciferase MMEJ reporter assay in HEK-293 cells. In kind it is cell-based. (In general: In a reporter assay the amount or activity of a reporter protein is the signal.)

Sequence of DNA polymerase theta (Polθ) (O75417 whole entry): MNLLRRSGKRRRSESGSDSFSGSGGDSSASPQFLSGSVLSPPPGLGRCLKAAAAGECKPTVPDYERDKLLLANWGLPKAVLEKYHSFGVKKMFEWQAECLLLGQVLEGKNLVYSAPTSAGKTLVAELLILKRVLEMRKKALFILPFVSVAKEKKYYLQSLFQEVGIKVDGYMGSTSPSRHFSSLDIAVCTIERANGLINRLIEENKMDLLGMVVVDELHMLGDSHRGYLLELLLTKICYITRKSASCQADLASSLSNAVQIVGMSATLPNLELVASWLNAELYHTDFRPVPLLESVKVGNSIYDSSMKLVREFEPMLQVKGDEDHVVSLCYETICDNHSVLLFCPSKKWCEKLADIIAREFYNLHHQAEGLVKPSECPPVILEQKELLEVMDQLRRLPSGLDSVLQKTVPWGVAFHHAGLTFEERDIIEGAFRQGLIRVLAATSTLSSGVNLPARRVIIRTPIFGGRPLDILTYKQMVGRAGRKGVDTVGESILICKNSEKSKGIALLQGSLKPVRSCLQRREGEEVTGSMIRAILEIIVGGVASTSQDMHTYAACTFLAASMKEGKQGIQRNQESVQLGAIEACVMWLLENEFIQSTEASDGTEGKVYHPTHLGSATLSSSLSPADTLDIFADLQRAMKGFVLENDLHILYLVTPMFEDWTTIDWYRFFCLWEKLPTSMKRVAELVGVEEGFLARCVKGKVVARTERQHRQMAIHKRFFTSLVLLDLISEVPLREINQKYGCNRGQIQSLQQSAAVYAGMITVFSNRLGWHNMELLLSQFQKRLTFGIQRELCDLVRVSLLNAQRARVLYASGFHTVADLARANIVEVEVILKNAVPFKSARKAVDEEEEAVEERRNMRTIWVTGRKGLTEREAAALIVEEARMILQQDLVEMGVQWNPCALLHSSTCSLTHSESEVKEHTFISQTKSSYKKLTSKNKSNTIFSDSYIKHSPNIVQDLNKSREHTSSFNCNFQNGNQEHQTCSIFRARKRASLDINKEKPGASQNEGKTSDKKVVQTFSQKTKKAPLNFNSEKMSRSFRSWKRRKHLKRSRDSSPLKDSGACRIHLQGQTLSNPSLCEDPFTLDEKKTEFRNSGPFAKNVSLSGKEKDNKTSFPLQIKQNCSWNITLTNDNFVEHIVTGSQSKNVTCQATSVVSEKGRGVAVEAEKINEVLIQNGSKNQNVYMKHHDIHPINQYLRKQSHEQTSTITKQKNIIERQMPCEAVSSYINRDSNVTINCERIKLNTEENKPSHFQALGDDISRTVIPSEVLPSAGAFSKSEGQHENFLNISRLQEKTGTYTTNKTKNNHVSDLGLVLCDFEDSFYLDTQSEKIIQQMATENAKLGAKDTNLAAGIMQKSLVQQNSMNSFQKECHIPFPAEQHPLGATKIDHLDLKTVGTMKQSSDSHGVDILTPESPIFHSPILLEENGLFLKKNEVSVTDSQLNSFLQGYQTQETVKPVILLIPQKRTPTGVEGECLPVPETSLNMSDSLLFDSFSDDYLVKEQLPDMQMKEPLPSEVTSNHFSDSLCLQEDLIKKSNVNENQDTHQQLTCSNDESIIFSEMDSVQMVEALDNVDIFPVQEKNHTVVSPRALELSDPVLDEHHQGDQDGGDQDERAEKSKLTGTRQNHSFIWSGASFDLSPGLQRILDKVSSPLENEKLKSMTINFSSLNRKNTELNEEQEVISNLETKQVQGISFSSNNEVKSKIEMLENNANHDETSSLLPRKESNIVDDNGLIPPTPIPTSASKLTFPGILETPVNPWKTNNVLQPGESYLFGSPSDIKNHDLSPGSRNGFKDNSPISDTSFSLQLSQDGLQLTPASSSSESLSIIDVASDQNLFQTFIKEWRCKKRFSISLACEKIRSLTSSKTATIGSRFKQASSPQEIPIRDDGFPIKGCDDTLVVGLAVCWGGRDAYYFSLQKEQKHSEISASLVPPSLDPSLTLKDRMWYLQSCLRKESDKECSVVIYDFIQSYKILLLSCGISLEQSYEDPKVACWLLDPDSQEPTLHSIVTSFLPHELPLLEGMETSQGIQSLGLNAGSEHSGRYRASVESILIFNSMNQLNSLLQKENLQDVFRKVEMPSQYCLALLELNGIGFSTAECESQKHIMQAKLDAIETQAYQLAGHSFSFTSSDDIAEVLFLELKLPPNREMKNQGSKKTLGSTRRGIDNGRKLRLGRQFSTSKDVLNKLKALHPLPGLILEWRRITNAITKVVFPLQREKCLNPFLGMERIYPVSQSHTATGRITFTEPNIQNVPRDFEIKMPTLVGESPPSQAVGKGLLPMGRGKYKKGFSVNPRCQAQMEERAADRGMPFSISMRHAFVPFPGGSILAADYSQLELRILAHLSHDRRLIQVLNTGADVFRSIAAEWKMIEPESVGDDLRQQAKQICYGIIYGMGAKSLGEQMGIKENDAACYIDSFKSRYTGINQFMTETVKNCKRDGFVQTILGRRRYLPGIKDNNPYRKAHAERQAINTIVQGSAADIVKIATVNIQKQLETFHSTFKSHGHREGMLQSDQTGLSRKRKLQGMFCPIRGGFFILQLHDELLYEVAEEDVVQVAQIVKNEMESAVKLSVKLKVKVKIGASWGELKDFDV

Take ART899: the IC50 was approximately 180 nM.
